Measured values: the supplement of paper PMC10307832

How the values were obtained:
Experiment in all cases: relative viability (nuclei count vs DMSO), 5 days (fraction); higher = more cells survive
R406 + Palbociclib = compound: COc1cc(Nc2ncc(F)c(Nc3ccc4c(n3)NC(=O)C(C)(C)O4)n2)cc(OC)c1OC [R406] + CC(=O)c1c(C)c2cnc(Nc3ccc(N4CCNCC4)cn3)nc2n(C2CCCC2)c1=O [Palbociclib] (partner 0.5 µM)
Outline: (§1)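 Lung cancer cell lines in 1536-well plates were dosed by pin tool the day after seeding, either with one drug alone or with a fixed anchor-drug dose plus five library-drug doses (not always all listed) in √10 steps. After 5 days, cells were fixed and their nuclei stained in one step (final 0.05% Triton X-100, 1% formaldehyde, 1 ug/ml Hoechst), then counted on 4× images. Relative viability is the nuclei count in treated wells divided by that in vehicle wells. Values are medians of duplicate plates.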

Daporinad + Decitabine = compound: O=C(/C=C/c1cccnc1)NCCCCC1CCN(C(=O)c2ccccc2)CC1 [Daporinad] + Nc1ncn([C@H]2C[C@H](O)[C@@H](CO)O2)c(=O)n1 [Decitabine] (partner 2 µM)
Outline: as §1

R406 + Pemetrexed = compound: COc1cc(Nc2ncc(F)c(Nc3ccc4c(n3)NC(=O)C(C)(C)O4)n2)cc(OC)c1OC [R406] + Nc1nc2[nH]cc(CCc3ccc(C(=O)N[C@@H](CCC(=O)O)C(=O)O)cc3)c2c(=O)[nH]1 [Pemetrexed] (partner 0.2 µM)
Outline: as §1

Daporinad + Alpelisib = compound: O=C(/C=C/c1cccnc1)NCCCCC1CCN(C(=O)c2ccccc2)CC1 [Daporinad] + Cc1nc(NC(=O)N2CCC[C@H]2C(N)=O)sc1-c1ccnc(C(C)(C)C(F)(F)F)c1 [Alpelisib] (partner 2 µM)
Outline: as §1

Cell Line | relative viability (R406 + Palbociclib; first compound 0.08 µM) | relative viability (R406 + Palbociclib; first compound 0.253 µM) | relative viability (R406 + Palbociclib; first compound 0.8 µM) | relative viability (R406 + Palbociclib; first compound 2.53 µM) | relative viability (R406 + Palbociclib; first compound 8 µM) | relative viability (Daporinad + Decitabine; first compound 0.0005 µM) | relative viability (Daporinad + Decitabine; first compound 0.001581 µM) | relative viability (Daporinad + Decitabine; first compound 0.005 µM) | relative viability (Daporinad + Decitabine; first compound 0.01581 µM) | relative viability (R406 + Pemetrexed; first compound 0.08 µM) | relative viability (R406 + Pemetrexed; first compound 0.253 µM) | relative viability (R406 + Pemetrexed; first compound 0.8 µM) | relative viability (R406 + Pemetrexed; first compound 2.53 µM) | relative viability (R406 + Pemetrexed; first compound 8 µM) | relative viability (Daporinad + Alpelisib; first compound 0.0005 µM) | relative viability (Daporinad + Alpelisib; first compound 0.001581 µM) | relative viability (Daporinad + Alpelisib; first compound 0.005 µM) | relative viability (Daporinad + Alpelisib; first compound 0.01581 µM)
NCI-H1975 | 0.537 | 0.734 | 0.644 | 0.115 | 0.192 | 0.444 | 0.338 | 0.382 | 0.373 | 0.29 | 0.322 | 0.272 | 0.261 | 0.175 | 0.69 | 0.602 | 0.755 | 0.678
CAL-12T | 0.425 | 0.612 | 0.549 | 0.142 | 0.158 | – | – | – | – | 1.22 | 1.15 | 1.17 | 0.918 | 1 | 1.28 | 1.04 | 0.832 | 0.411
NCI-H2342 | 0.518 | 0.508 | 0.504 | 0.474 | 0.509 | 0.814 | 0.58 | 0.67 | 0.72 | 0.737 | 0.835 | 0.862 | 0.749 | 0.774 | – | – | – | –
HCC-44 | 0.945 | 0.982 | 0.858 | 1.02 | 1.16 | 0.921 | 0.988 | 1.04 | 0.95 | 0.585 | 0.621 | 0.603 | 0.601 | 0.726 | 0.817 | 0.937 | 0.825 | 0.864
EKVX | 0.362 | 0.417 | 0.373 | 0.333 | 0.315 | 0.307 | 0.391 | 0.36 | 0.359 | 0.374 | 0.467 | 0.395 | 0.365 | 0.387 | 0.83 | 0.87 | 0.873 | 1.18
NCI-H1651 | 0.496 | 0.578 | 0.531 | 0.511 | 0.527 | 0.711 | 0.67 | 0.731 | 0.47 | 0.475 | 0.679 | 0.573 | 0.548 | 0.508 | 1.04 | 0.905 | 0.895 | 0.923
NCI-H1648 | 0.276 | 0.275 | 0.301 | 0.296 | 0.303 | 0.463 | 0.528 | 0.511 | 0.44 | 0.749 | 0.727 | 0.754 | 0.675 | 0.653 | – | – | – | –
NCI-H1703 | – | – | – | – | – | – | – | – | – | – | – | – | – | – | 0.412 | 0.379 | 0.466 | 0.312
Calu-6 | – | – | – | – | – | – | – | – | – | – | – | – | – | – | 0.934 | 0.96 | 1.09 | 0.519
EBC-1 | – | – | – | – | – | – | – | – | – | – | – | – | – | – | 0.761 | 0.901 | 0.935 | 0.859
A-427 | 0.516 | 0.596 | 0.575 | 0.477 | 0.446 | 0.54 | 0.571 | 0.506 | 0.493 | 0.947 | 1.01 | 1.05 | 0.979 | 0.787 | 0.948 | 1.15 | 1.04 | 0.852
NCI-H2347 | 0.423 | 0.415 | 0.453 | 0.446 | 0.406 | 0.457 | 0.721 | 0.619 | 0.578 | 0.402 | 0.398 | 0.433 | 0.395 | 0.387 | 1.11 | 1.22 | 1.02 | 1.08
NCI-H1355 | 0.404 | 0.366 | 0.416 | 0.329 | 0.278 | 0.373 | 0.356 | 0.323 | 0.369 | 1.09 | 1.09 | 1.09 | 0.982 | 0.911 | 0.719 | 0.873 | 1.02 | 0.856
NCI-H1944 | 0.333 | 0.312 | 0.329 | 0.252 | 0.241 | 0.44 | 0.406 | 0.497 | 0.411 | 0.617 | 0.617 | 0.684 | 0.571 | 0.411 | 0.892 | 0.907 | 0.822 | 0.844
RERF-LC-KJ | 1.04 | 1.19 | 1.07 | 0.883 | 0.86 | 0.565 | 0.697 | 0.758 | 0.827 | 0.457 | 0.487 | 0.473 | 0.458 | 0.381 | 0.811 | 0.893 | 0.88 | 0.98
NCI-H2228 | 0.728 | 1.07 | 0.688 | 0.244 | 0.427 | – | – | – | – | 0.316 | 0.332 | 0.352 | 0.255 | 0.0888 | 0.744 | 0.87 | 0.702 | 0.898
HOP-62 | 0.426 | 0.533 | 0.397 | 0.456 | 0.378 | 0.176 | 0.209 | 0.208 | 0.179 | 0.315 | 0.348 | 0.297 | 0.412 | 0.344 | – | 1.3 | 1.11 | 0.481
HARA | 0.334 | 0.198 | 0.223 | 0.264 | 0.132 | 0.351 | 0.496 | 0.442 | 0.207 | 0.261 | 0.236 | 0.246 | 0.262 | 0.174 | 0.702 | 0.955 | 0.638 | 0.176
PC-14 | 0.58 | 0.666 | 0.735 | 0.346 | 0.146 | 0.189 | 0.199 | 0.23 | 0.144 | 0.139 | 0.131 | 0.135 | 0.101 | 0.042 | 0.985 | 0.97 | 0.913 | 0.897
NCI-H1755 | 0.419 | 0.456 | 0.422 | 0.421 | 0.397 | 0.747 | 0.716 | 0.713 | 0.652 | 0.474 | 0.419 | 0.426 | 0.385 | 0.33 | 0.883 | 0.979 | 0.599 | 0.898
HCC-78 | 0.457 | 0.525 | 0.501 | 0.467 | 0.427 | 0.805 | 0.744 | 0.669 | 0.65 | 0.807 | 0.972 | 0.962 | 0.847 | 0.878 | 0.296 | 0.368 | 0.285 | 0.425
